Holding throughout (type): biochemical
The target of one test is T1, MMP-1 (Homo sapiens, UniProt P03956).
T1 sequence (P03956 100-469): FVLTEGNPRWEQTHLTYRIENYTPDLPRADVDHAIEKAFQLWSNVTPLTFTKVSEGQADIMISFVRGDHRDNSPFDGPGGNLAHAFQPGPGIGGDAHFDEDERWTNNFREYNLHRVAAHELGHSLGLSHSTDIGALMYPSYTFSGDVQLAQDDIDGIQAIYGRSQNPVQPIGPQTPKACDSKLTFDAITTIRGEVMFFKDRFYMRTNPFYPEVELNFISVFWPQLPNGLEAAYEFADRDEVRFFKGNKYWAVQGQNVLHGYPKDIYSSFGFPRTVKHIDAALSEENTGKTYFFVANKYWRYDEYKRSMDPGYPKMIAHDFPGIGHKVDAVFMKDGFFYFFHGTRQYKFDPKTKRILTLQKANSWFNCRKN
The test can be described thus: MMP-1 inhibition (thiopeptide or fluorescent peptide substrate). Particulars: read-out: MMP1 IC50.

For a further test, the target named is MMP-9 (Homo sapiens, UniProt P14780). The test can be described thus: MMP-9 inhibition (thiopeptide or fluorescent peptide substrate). Particulars: read-out: MMP9 IC50.
Chain of MMP-9 (P14780 94-707): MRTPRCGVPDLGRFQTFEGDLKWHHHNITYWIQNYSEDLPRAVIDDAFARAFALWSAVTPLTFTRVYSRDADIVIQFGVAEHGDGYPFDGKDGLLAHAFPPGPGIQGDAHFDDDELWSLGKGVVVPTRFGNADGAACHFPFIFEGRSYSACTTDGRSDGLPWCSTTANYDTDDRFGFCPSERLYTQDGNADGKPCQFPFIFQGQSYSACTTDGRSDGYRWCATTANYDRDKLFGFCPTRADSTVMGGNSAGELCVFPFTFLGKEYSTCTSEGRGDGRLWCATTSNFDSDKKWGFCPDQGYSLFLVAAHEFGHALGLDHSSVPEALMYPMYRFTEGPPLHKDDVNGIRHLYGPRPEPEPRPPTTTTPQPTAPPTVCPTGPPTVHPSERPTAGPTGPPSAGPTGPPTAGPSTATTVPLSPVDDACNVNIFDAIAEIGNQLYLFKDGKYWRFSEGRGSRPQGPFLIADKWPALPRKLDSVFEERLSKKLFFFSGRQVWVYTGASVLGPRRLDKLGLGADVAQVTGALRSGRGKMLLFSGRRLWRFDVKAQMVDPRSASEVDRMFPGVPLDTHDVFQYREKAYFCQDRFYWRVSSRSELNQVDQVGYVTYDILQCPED
In the next test the target is MMP-13 (Homo sapiens, UniProt P45452). The test can be described thus: MMP-13 inhibition (thiopeptide or fluorescent peptide substrate). Particulars: read-out: MMP13 IC50. In a few lines: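 Human recombinant MMP-1, MMP-9 or MMP-13 was run either with a thiopeptide substrate plus DTNB (1 mM working dilution) in 50 mM HEPES pH 7.5, 5 mM CaCl2 (colorimetric), or with a quenched fluorescent peptide in HCBC buffer pH 7.0. Reactions started with substrate; the rate slope was compared with control by Dunnett's test.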

Experimental findings from US6753337B2, “Alkynyl containing hydroxamic acid compounds as matrix metalloproteinase/tace inhibitors” (Wyeth Holdings Corporation, priority 1999, dated 2004) are described below.

Counter-ions that a name gives are not always drawn. Like-named read-outs stand apart in the source and are kept apart here. Where only a bound is given, the exact number is not on record here.

As a reminder, the IC50 is the point on the concentration scale where inhibition reaches its midpoint. With `CC#CCOc1ccc(S(=O)(=O)C2(C(=O)NO)CCN(Cc3ccc(Br)cc3)CC2)cc1` [Example 1, 1-(4-Bromo-benzyl)-4-(4-but-2-ynyxoy-benzenesulfonyl)-piperdine-4-carboxylic acid hydroxyamide], the IC50 on MMP-1 was determined as 3300 nM; on MMP-9, 385 nM; at MMP-13, 155 nM.
`CC#CCOc1ccc(S(=O)(=O)CC2(C(=O)NO)CCN(C(=O)C3(C)COC(C)(C)OC3)CC2)cc1` [Example 42, 4-({[4-(2-Butynyloxy)phenyl]sulfonyl}methyl)-N-hydroxy-1-[(2,2,5-trimethyl-1,3-dioxan-5-yl)carbonyl]-4-piperidinecarboxamide]: the results for the IC50 at MMP-1, on MMP-9 and at MMP-13 were roughly 10000 nM, greater than 10000 nM and 1630 nM, respectively.
Consider `CC#CCOc1ccc(S(=O)(=O)C2(C(=O)NO)CCN(C(=O)c3ccccc3)CC2)cc1` [Example 65, 1-Benzoyl-4-(4-but-2-ynyloxybenzenesulfonyl)piperidine-4-carboxylic acid hydroxamide], for which the values for the IC50 at MMP-1, on MMP-9 and at MMP-13 were 3530 nM, 448 nM and 105 nM, respectively.
For `CC#CCOc1ccc(S(=O)(=O)C2(C(=O)NO)CCN(C(=O)c3ccc(OC)cc3)CC2)cc1` [Example 66, 1-(4-Methoxybenzoyl)-4-(4-but-2-ynyloxybenzenesulfonyl)piperidine-4-carboxylic acid hydroxamide], in that order: 2770 nM, 430 nM and 81 nM.
For `CC#CCOc1ccc(S(=O)(=O)C2(C(=O)NO)CCN(C(=O)N3CCCC3)CC2)cc1` [Example 67, 4-(4-But-2-ynyloxybenzenesulfonyl)-N-hydroxy-1-(pyrrolidine-1-carbonyl)-4-piperidinecarboxamide], in that order: 2030 nM, 853 nM and 345 nM.
In the same order, the values of `CC#CCOc1ccc(S(=O)(=O)C2(C(=O)NO)CCN(Cc3ccc(OC)cc3)CC2)cc1` [Example 2, 4-(4-But-2-ynyloxy-benzenesulfonyl)-1-(4-methoxy-benzyl)-piperdine-4-carboxylic acid hydroxyamide] are 2570 nM, 164 nM and 39.6 nM.
For the compound `CC#CCOc1ccc(S(=O)(=O)CC2(C(=O)NO)CCN(C(=O)OC(C)(C)C)CC2)cc1` [Example 34, tert-Butyl-4-({[4-(but-2-ynyloxy)phenyl]sulfonyl}methyl)-4-[(hydroxyamino)-carbonyl]piperidine-1-carboxylate], the IC50 at MMP-1 was roughly 10000 nM; at MMP-9 it was 1390 nM; at MMP-13, 102 nM.
In the same order, the values of `CC#CCOc1ccc(S(=O)(=O)C2(C(=O)NO)CCN(C(=O)OC(C)(C)C)CC2)cc1` [Example 75, Tert-butyl 4-{[4-(2-butynyloxy)phenyl]sulfonyl}-4-[(hydroxyamino)carbonyl-]-1-piperidinecarboxalate] are 2590 nM, 1950 nM and 284 nM.
For `CC#CCOc1ccc(S(=O)(=O)CC2(C(=O)NO)CCN(Cc3ccccc3)CC2)cc1` [Example 41], in that order: 2680 nM, 1120 nM and 254 nM.
On to `CC#CCOc1ccc(S(=O)(=O)C2(C(=O)NO)CCOCC2)cc1` [Example 20, 4-{[4-(2-butynyloxy)phenyl]sulfonyl}-N-hydroxytetrahydro-2H-pyran-4-carboxamide], for which the IC50 at MMP-1 (cells that print nM) was 2640 nM; on MMP-9 it was 568 nM; on MMP-13, 121 nM.
In the case of `CC#CCOc1ccc(S(=O)(=O)CC2(C(=O)NO)CCN(CC#CCO)CC2)cc1` [Example 45], the IC50 at MMP-1 was 3800 nM; on MMP-9, 3580 nM; at MMP-13, 423 nM.
Turning to `CC#CCOc1ccc(S(=O)(=O)C2(C(=O)NO)CCN(Cc3cccnc3)CC2)cc1` [Example 23, 4-{[4-(2-butynyloxy)phenyl]sulfonyl}-N-hydroxy-1-(3-pyridinylmethyl)-4-piperidine carboxamide], the IC50 worked out at 3210 nM at MMP-1 (cells that print nM), 160 nM on MMP-9 and 64.4 nM on MMP-13.
With `CC#CCOc1ccc(S(=O)(=O)C2(C(=O)NO)CCN(C(C)C)CC2)cc1` [Example 22, 4-{[4-(2-butynyloxy)phenyl]sulfonyl}-N-hydroxy-1-isopropyl-4-piperidine carboxamide], the IC50 is greater than 10000 nM at MMP-1, 1810 nM on MMP-9 and 1080 nM at MMP-13.
In the same order, the values of `CC#CCOc1ccc(S(=O)(=O)C2(C(=O)NO)CCN(Cc3ccc(C(=O)O)cc3)CC2)cc1` [Example 78, 4-({4-{[4-(2-butynyloxy)phenyl]sulfonyl}-4-[(hydroxyamino)-carbonyl]-1-piperidinyl}methyl)benzoic acid hydrochloride] are 1050 nM, 364 nM and 73.7 nM.
For `CC#CCOc1ccc(S(=O)(=O)C2(C(=O)NO)CCN(C(=O)c3cccs3)CC2)cc1` [Example 71, 4-(4-but-2-ynyloxybenzenesulfonyl)-N-hydroxy-1-(2-thienylcarbonyl)-4-piperidinecarboxamide], in that order: 3120 nM, 811 nM and 183 nM.
For `CC#CCOc1cccc(S(=O)(=O)C2(C(=O)NO)CCN(Cc3ccccc3)CC2)c1` [Example 21, 1-benzyl-4-{[3-(2-butynyloxy)phenyl]sulfonyl}-N-hydroxy-4-piperdine carboxamide], in that order: greater than 10000 nM, 3500 nM and 858 nM.
As to `CC#CCOc1ccc([S+]([O-])C2(C(=O)NO)CCN(Cc3ccc(Br)cc3)CC2)cc1` (stereo not drawn) [Example 82, 1-(4-Bromo-benzyl)-4-(4-But-2-ynyloxy-benzenesulfinyl)-piperidine-4-carboxylic acid hydroxamide hydrochloride], the IC50 came out at 257000 nM on MMP-1, 125 nM at MMP-9 and 62 nM on MMP-13.
Turning to `C#CCOc1ccc(S(=O)(=O)C2(C(=O)NO)CCN(Cc3ccc(Cl)cc3)CC2)cc1` [Example 29, 1-(4-Chlorobenzyl)-4-(4-prop-2-ynyloxy-benzenesulfonyl)-piperidine-4-carboxylic acid hydroxyamide], the values for the IC50 on MMP-1 (cells that print nM), on MMP-9 and at MMP-13 were 91 nM, 16 nM and 4.7 nM, respectively.
In the case of `O=C(NO)C1(S(=O)(=O)c2ccc(OCC#CCN3CCCCC3)cc2)CCN(Cc2ccc(Br)cc2)CC1` [Example 12, 1-(4-bromo-benzyl)-4-[4-(4-piperidin-1-yl-but-2-ynyloxy)-benzenesulfonyl]-piperidine-4-carboxylic acid hydroxyamide], the IC50 stood at 15000 nM at MMP-1, 1000 nM at MMP-9 and 1500 nM on MMP-13.
For `CC#CCOc1ccc(SCC2(C(=O)NO)CCN(C(=O)OC(C)(C)C)CC2)cc1` [Example 30, tert-butyl-4-({[4-(2-butynyloxy)phenyl]sulfanyl}methyl)-4-[(hydroxyamino)-carbonyl]-1-piperidinecarboxylate], in that order: greater than 10000 nM, 5900 nM and 2910 nM.
In the same order, the values of `CC#CCOc1ccc([S+]([O-])CC2(C(=O)NO)CCN(C(=O)OC(C)(C)C)CC2)cc1` (stereo not drawn) [Example 32, tert-Butyl-4-({[4-(2-butynyloxy)phenyl]sulfinyl}methyl)-4-[(hydroxyamino)-carbonyl]-1-piperidinecarboxylate] are greater than 10000 nM, greater than 10000 nM and 2750 nM.
For `CC#CCOc1ccc(S(=O)(=O)C2(C(=O)NO)CCN(Cc3ccc(C(N)=O)cc3)CC2)cc1` [Example 79, 1-[4-(Aminocarbonyl)benzyl]-4-{[4-(2-butynyloxy)phenyl]sulfonyl}-N-hydroxy-4-piperidinecarboxamide hydrochloride], in that order: 2420 nM, 129 nM and 50.6 nM.
Consider `CC#CCOc1ccc(S(=O)(=O)CC2(C(=O)NO)CCN(C(=O)OCc3ccccc3)CC2)cc1` [Example 40, Benzyl 4-({[4-(2-butynyloxy)phenyl]sulfonyl}methyl)-4-[(hydroxyamino)-carbonyl]-1-piperidinecarboxylate], for which the IC50 on MMP-1 came to 707 nM; on MMP-9, 425 nM; on MMP-13 it was 36 nM.
For `CC#CCOc1ccc(S(=O)(=O)CC2(C(=O)NO)CCN(C(C)=O)CC2)cc1` [Example 36, 1-Acetyl-4-[[[4-(2-butynyloxy)phenyl]sulfonyl]methyl]-N-hydroxy-4-piperidinecarboxamide], in that order: 3900 nM, 2830 nM and 380 nM.
For `CC#CCOc1ccc(S(=O)(=O)C2(C(=O)NO)CCN(Cc3ccc(F)cc3)CC2)cc1` [Example 7, 4-(4-But-2-ynyloxy-benzenesulfonyl)-1-(4-fluoro-benzyl)-piperidine-4-carboxylic acid hydroxyamide], in that order: 2500 nM, 225 nM and 59.4 nM.
